According to patent publication US10450364B2 (priority 2017, dated 2019):
Where “and” joins values, the source holds several entries; their conditions need not be identical. Equal values may be shown once. Where a SMILES comes first, the peptide text is derived from it. Bridges are numbered along the chain shown (N, C = ends). [ ]: non-standard residue; d: D form. The star is where a group is joined. Ileψ(thiazoline)Cys = CC[C@H](C)[C@H](N)C1=N[C@H](C(=O)*)CS1; dOrn = NCCC[C@@H](N)C(=O)O

Legend:
Clostridium perfringens [1] = type: in vivo, broiler chickens; details: subclinical NE
Clostridium perfringens [2] = tested on: Clostridium perfringens; set-up: species or system broiler chickens (Cobb 500); details: in vivo
C. perfringens = tested on: C. perfringens; set-up: species or system broiler chickens (Cobb 500); details: in vivo
[3] = raw data of individual birds, 0.5% egg powder, cells marked * removed as outlier

| Compound | Weight gain (g) day 0-6 post challenge, Average (Clostridium perfringens [1]; group average, 0.5% egg powder) | Weight gain (g) day 0-11 post challenge, Average (Clostridium perfringens [1]; group average, 0.5% egg powder) | Lesion Score - day 2 post challenge, Average (Clostridium perfringens [1]; group average, egg powder 0.5% in feed (Vir 20 g/ton), scale 0 to 4) | Weight gain (g) day 0-6 post challenge (Clostridium perfringens [1]; [3]) | Weight gain (g) day 0-11 post challenge (Clostridium perfringens [1]; [3]) | Lesion Score - day 2 post challenge (Clostridium perfringens [1]; raw data of individual birds, egg powder 0.5% in feed (Vir 20 g/ton), scale 0 (none) to 4 (high)) | % NE Mortality (Clostridium perfringens [2]) | Feed Intake D 0-28 (Clostridium perfringens [2]) | Lesion Score (0-3) (Clostridium perfringens [2]) | Weight Gain D 0-28 (Clostridium perfringens [2]) | % NE Mortality (C. perfringens) | Feed Intake D 0-28 (C. perfringens) | Lesion Score (0-3) (C. perfringens) | Weight Gain D 0-28 (C. perfringens) |
| --- | --- | --- | --- | --- | --- | --- | --- | --- | --- | --- | --- | --- | --- | --- |
| Virginiamycin | 226 g | 570 g | 0.5 | 267 g and 211 g (2×) and 256 g and 252 g and 170 g and 213 g and 289 g and 162 g (2×) and 229 g and 241 g and 203 g and 157 g and 195 g and 238 g and 321 g and 233 g and 319 g and 182 g and 239 g | 618 g and 554 g and 520 g and 540 g and 467 g and 479 g and 544 g and 566 g and 420 g and 552 g and 607 g and 686 g and 568 g and 723 g and 709 g | 1 (3×) and 0 (3×) | – | – | – | – | – | – | – | – |
| CC[C@H](C)[C@H](N)C1=N[C@H](C(=O)N[C@@H](CC(C)C)C(=O)N[C@H](CCC(=O)O)C(=O)N[C@H](C(=O)N[C@H]2CCCCNC(=O)[C@H](CC(N)=O)NC(=O)[C@@H](CC(=O)O)NC(=O)[C@H](Cc3cnc[nH]3)NC(=O)[C@@H](Cc3ccccc3)NC(=O)[C@H]([C@@H](C)CC)NC(=O)[C@@H](CCCN)NC2=O)[C@@H](C)CC)CS1 [bacitracin] ({Ileψ(thiazoline)Cys}-L[dE]IK[dOrn]I[dF]H[dD]N; lactam 4-C) | – | – | – | – | – | – | 10.9bcde % | 8.040bc | 1.0bc | 0.590bcd | 9.4bc % | 6.708bcd | 1.3 bc | 0.648bcd |
